Values of other authors, collected in patent publication US9271959B2, “Bicyclic tetrahydropyrrole compounds” (Laboratorios del Dr. Esteve, S.A., priority 2006, dated 2016).

Assays:
sigma 1 (σ-1) site = sigma 1 (σ-1) site (Homo sapiens, UniProt Q99720)
sigma (σ-2) site = sigma (σ-2) site (Homo sapiens, UniProt Q5BJF2)
sigma (σ-2) site, sequence (Q5BJF2 whole entry): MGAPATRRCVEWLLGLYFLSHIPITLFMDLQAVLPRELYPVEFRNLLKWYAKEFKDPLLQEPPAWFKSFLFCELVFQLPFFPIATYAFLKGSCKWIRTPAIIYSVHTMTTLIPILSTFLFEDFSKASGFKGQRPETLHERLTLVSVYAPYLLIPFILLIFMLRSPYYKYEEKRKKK

sigma 1 (σ-1) site, sequence (Q99720 whole entry): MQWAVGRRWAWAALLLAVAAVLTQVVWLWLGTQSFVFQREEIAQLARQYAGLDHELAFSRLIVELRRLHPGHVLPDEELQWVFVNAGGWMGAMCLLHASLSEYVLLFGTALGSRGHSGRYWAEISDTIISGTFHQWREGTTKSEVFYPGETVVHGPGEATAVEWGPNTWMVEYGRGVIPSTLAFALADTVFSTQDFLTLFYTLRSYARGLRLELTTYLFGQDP

SKF 10047
affinity for the sigma 1 (σ-1) site (sigma 1 (σ-1) site): nanomolar affinity
affinity for the sigma (σ-2) site (sigma (σ-2) site): micromolar affinity
